The source of these data is patent US20050233991A1, “Methods and compositions for the identification, assessment, and therapy of small cell lung cancer” (priority 2002, published 2005).

One assay deals with NCI-H446 cells. Kind of assay: Phase contrast microscopy of SDF-1α induced adhesion/morphology with LY294002. The class given is cell-based, human. The conditions noted are these: SDF-1α 100 ng/ml, 24 hour time point. As for the experimental part:
(§1) Phase-contrast photomicrographs were taken at various time points (0, 1, 2, 4, 8, and 24 hours). For LY294002 studies, starved NCI-H446 cells (1×10^6) were resuspended in serum free media and placed onto a 35 mm tissue culture dish (Becton Dickinson Labware).
Phase-contrast microscopy pictures were taken at the 24 hour time point. Most of the untreated cells kept their rounded shape and formed clusters, and nearly half of them attached weakly to the bottom of the dish.

Another assay concerns Akt and p70 S6 kinase. In words: Immunoblotting of Akt and p70 S6 kinase phosphorylation. It is filed as cell-based, human. The following applies: for time to phosphorylation of Akt (Ser 473) and p70 S6 kinase (Thr 389): 50 ng/ml, serum starved NCI-H69 cells. The procedure: (§2) Cells were lysed in lysis buffer (20 mM Tris pH 8.0, 150 mM NaCl, 10% glycerol, 1% NP-40, 0.42% NaF) containing protease inhibitors (1 mM PMSF, 1 mM Na3VO4, 5 μg/ml aprotinin, 5 μg/ml leupeptin). Cell lysates were separated by 7.5% SDS-PAGE under reducing conditions and transferred to nitrocellulose membranes (Schleicher & Schuell, Dassel, Germany). Proteins were detected by immunoblotting using an enhanced chemiluminescence technique (NEN Life Science Products, Mass.). Rabbit polyclonal antibodies against c-Kit (C-19; Santa Cruz Biotechnology, Inc., Santa Cruz, Calif.), Akt, Akt (pSer 473), Akt (pThr 308), p70 S6 kinase, and p70 S6 kinase (pThr 389) (Cell Signaling Technology, Inc., Beverly, Mass.) and monoclonal antibodies against […]-actin (AC-15; Sigma, St. Louis, Mo.) and phosphotyrosine (4G10, UBI, Lake Placid, N.Y.) were used.
(§3) The activity of the PI3-K downstream targets Akt and p70 S6 kinase is regulated through critical serine/threonine (Ser/The) residues (Franke, T. F. et al. (1997) Cell 88:435-7; Pullen, N. and Thomas, G. (1997) FEBS Lett 410:78-82). […] Cell lysates were applied to a 7.5% SDS-PAGE gel and transferred to nitrocellulose membrane. The membrane was probed with monoclonal antibodies against phosphotyrosine (4G10) and β-actin and polyclonal antibodies against Akt (pSer 473) and p70 S6 kinase (S6K) (pThr 389). […] On the other hand, maximal tyrosine phosphorylation of proteins at 60-90 kDa and 110-145 kDa occurred within 2.5-7.5 minutes in response to SCF.
Lysates were processed as described above in Example 6, and the membrane was probed with the phospho-specific or regular antibodies against Akt and p70 S6 kinase, as well as with an anti-c-Kit antibody. […] The expression levels of Akt, p70 S6 kinase, and c-Kit were not affected by any of these treatments.

Assay [1] concerns NCI-H69 cells. Kind of assay: Phase contrast microscopy of morphological changes with SDF-1α, SCF and STI571. The class given is cell-based, human. The conditions noted are these: for morphological change of NCI-H69 cells in response to ligand: 100 ng/ml, pictures after 8 hours. The procedure:
as §1
It has not been shown previously that there is a functional interaction between CXCR4 and c-Kit in SCLC. […] Phase-contrast microscopy pictures were then taken after 8 hours. Morphological changes began to be apparent at 4 hours, and the changes plateaued between 8 and 24 hours. […] Inhibition of the active c-Kit receptor by STI571 may lead to the inhibition of other active receptors such as CXCR4.

A further assay addresses human c-Kit (human). Kind of assay: cell-based or functional assay.
Assay [2] has as its system tyrosine phosphorylation of cellular proteins in NCI-H69 cells. Kind of assay: Immunoblotting of tyrosine phosphorylation of cellular proteins (4G10). The class given is cell-based, human. As for the experimental part:
as §2, §3

Assay [3] relates to NCI-H69 cells. Kind of assay: Cell viability assay (trypan blue dye exclusion). The class given is cell-based, human. The following applies: 100 ng/ml; for increase in viable cell number: 10% FCS, 72 hours; for effect on cell survival: without serum. The procedure:
Ten small cell lung cancer (SCLC) cell lines (NCI-H69, NCI-H82, NCI-H128, NCI-H146, NCI-H209, NCI-H249, NCI-H345, NCI-H446, NCI-H510, and NCI-H526) were purchased from the American Type Culture Collection (Rockville, Md.) and maintained in RPMI 1640 medium (Cellgro) supplemented with 10% (v/v) fetal calf serum (FCS). MO7e cells were maintained as described in Sattler, M. et al. (1997) J. Biol. Chem. 272:10248-53. All cell lines were incubated at 37° C. in a 5% CO2 humidified atmosphere and harvested during log phase growth. Cells were deprived of growth factors by incubation in RPMI 1640 medium containing 0.5% (w/v) bovine serum albumin (BSA) (Sigma, St. Louis, Mo.) for 18 hours. In some experiments, cells were treated with 5 μM STI571 (Gleevec™, Novartis Pharmaceuticals, Basel, Switzerland) or 25 μM LY294002 (Sigma).
Viable cells were counted by trypan blue dye exclusion test every 24 hours up to 72 hours. Data was plotted as the mean±SD from three independent experiments. Student's t test was used for the statistical analysis of viable cell number under individual conditions. Differences were considered statistically significant at p<0.05.

Regarding `O=c1cc(N2CCOCC2)oc2c(-c3ccccc3)cccc12` [LY294002, reference compound], in the assay on NCI-H446 cells (LY294002 25 μM), the “cells floating with rounded shapes in spite of SDF-1α treatment” value is recorded as “more than 90%”.

For `Cc1ccc(NC(=O)c2ccc(CN3CCN(C)CC3)cc2)cc1Nc1nccc(-c2cccnc2)n1` [STI571], the “effect of pre-treatment on SCF induced phosphorylation of Akt and p70 S6 kinase” value in the assay with Akt and p70 S6 kinase (STI571 5 μM or LY294002 25 μM overnight, then 50 ng/ml SCF 15 minutes, NCI-H69 cells) is listed as “inhibited”. In the assay with NCI-H69 cells [1] (STI571 5 μM), the “inhibition of the morphological changes” value was “only in the presence of SCF”. Moreover, the “neurite like projections induced by SDF-1α alone in the presence of STI571” value in the assay with NCI-H69 cells [1] (STI571 5 μM, SDF-1α 100 ng/ml) is recorded as “still formed”. In addition, the “neurite like structures in STI571 treated cells stimulated with both SDF-1α and SCF” value with NCI-H69 cells [1] (STI571 5 μM, SDF-1α 100 ng/ml and SCF 100 ng/ml) is on record as “could not form any neurite like structures”.

In the assay with human c-Kit (human), “Recombinant human SCF (stem cell factor) (from UniProt P21583 26-189) (ligand)” showed a cell proliferation of NCI-H69 cells (viable cell count, trypan blue), 10% FCS, 100 ng/ml SCF, 48 hours, increase compared with untreated control of 21.5%; a concentration for optimal phosphorylation of cellular proteins in NCI-H69 cells (immunoblot, dose-response) of 10 ng/mL; a time to phosphorylation of Akt (Ser 473) and p70 S6 kinase (Thr 389) in NCI-H69 cells, 50 ng/ml SCF below 2.5 min.

Consider “SCF: Recombinant human stem cell factor, natural ligand of c-Kit”, for which the “concentration giving optimal phosphorylation of cellular proteins (dose-response studies)” value in assay [2] (NCI-H69 cells) was at least 10 ng/mL. Also, the “time of maximal tyrosine phosphorylation of proteins at 60-90 kDa and 110-145 kDa” value in assay [2] (SCF 50 ng/ml, serum starved NCI-H69 cells) is reported as 2.5-7.5 minutes. In addition, in the assay with NCI-H69 cells [3], the “increase in viable cell number” value turned out to be 16.5% and the “effect on cell survival” value is “neither SCF nor SDF-1α showed any effect”. Further, the “cell proliferation induced, as compared with untreated control” value in the assay on NCI-H69 cells [3] (media containing 10% FCS, 48 hours) is reported as 21.5%. In addition, in the assay on Akt and p70 S6 kinase, the “time to phosphorylation of Akt (Ser 473) and p70 S6 kinase (Thr 389)” value was at most 2.5 min. Also, the “morphological change of NCI-H69 cells in response to ligand” value with NCI-H69 cells [1] is on record as “Neurite like actin formations were observed”.

Take “SDF-1α: Recombinant human SDF-1α, natural ligand for CXCR4, member of the CXC chemokine family”: the “time to tyrosine phosphorylated bands between 70-120 kDa” value in assay [2] (SDF-1α 50 ng/ml, serum starved NCI-H69 cells) is at most 15 min. Further, in the assay with NCI-H69 cells [3], the “increase in viable cell number” value is listed as 15.5% and the “effect on cell survival” value was “neither SCF nor SDF-1α showed any effect”. In addition, the “adhesion and morphology of cells with SDF-1α” value in the assay on NCI-H446 cells is “almost all cells tightly adhered to the bottom of the dish and neurite like projections were induced in many cells”. Also, the “time to phosphorylation of Akt (Ser 473) and p70 S6 kinase (Thr 389)” value in the assay with Akt and p70 S6 kinase was at most 5 min. For the same molecule, in the assay with NCI-H69 cells [1], the “morphological change of NCI-H69 cells in response to ligand” value was “more apparent as projections”.
